# Source: article PMC12373499 (Nature Metabolism, 2025)
# Values joined by “and” are separate entries in the source; they are usually repeats but may differ in a detail not shown here. Equal entries are not always repeated.
# T1: mGLP1R (Mus musculus, UniProt O35659)
# T1 construct: expressed in transfected cells; host or cells: AD293 cells, transient transfection (Lipofectamine 2000)
# T1 sequence (O35659 22-463): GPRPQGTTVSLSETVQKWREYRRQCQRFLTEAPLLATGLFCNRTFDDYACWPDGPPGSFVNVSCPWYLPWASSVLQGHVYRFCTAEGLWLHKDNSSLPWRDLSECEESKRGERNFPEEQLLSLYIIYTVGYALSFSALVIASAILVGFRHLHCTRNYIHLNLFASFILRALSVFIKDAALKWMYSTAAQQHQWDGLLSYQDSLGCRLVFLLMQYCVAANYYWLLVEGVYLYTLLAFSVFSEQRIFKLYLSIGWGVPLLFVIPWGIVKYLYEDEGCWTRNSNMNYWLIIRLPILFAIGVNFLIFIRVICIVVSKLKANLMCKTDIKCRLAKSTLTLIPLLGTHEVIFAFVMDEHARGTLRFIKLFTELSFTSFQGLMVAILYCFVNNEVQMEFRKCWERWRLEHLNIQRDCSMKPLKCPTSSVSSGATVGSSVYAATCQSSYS
# T2: hGIPR (Homo sapiens, UniProt P48546)
# T2 construct: expressed in transfected cells; host or cells: AD293 cells, transient transfection (Lipofectamine 2000)
# T2 sequence (P48546 22-466): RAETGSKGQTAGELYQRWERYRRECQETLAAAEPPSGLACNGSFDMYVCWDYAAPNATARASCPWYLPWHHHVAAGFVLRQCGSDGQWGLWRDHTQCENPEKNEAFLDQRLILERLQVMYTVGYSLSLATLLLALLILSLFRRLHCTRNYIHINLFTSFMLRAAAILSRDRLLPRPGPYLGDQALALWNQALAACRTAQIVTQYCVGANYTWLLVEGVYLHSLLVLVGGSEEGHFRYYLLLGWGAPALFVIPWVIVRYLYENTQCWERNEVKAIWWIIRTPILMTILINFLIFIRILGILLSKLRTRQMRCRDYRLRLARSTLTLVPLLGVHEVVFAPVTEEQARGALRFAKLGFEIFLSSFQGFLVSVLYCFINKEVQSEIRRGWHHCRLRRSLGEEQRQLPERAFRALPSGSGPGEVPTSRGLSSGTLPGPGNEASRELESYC
# T3: mGIPR (Mus musculus, UniProt Q0P543)
# T3 construct: expressed in transfected cells; host or cells: AD293 cells, transient transfection (Lipofectamine 2000)
# T3 sequence (Q0P543 19-460): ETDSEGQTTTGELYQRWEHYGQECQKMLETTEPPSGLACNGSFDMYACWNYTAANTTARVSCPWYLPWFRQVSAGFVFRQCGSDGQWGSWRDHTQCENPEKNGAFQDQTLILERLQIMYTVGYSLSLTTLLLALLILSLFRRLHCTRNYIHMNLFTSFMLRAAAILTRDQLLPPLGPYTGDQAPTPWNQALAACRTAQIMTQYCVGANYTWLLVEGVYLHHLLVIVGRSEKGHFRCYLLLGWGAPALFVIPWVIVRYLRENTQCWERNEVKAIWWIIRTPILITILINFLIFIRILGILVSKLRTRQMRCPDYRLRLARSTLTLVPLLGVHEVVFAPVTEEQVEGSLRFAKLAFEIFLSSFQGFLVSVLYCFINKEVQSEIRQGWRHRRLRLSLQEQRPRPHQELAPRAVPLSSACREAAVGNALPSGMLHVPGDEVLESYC
# T4: GIP(1-42) (Homo sapiens, UniProt P09681)
# T4 chain: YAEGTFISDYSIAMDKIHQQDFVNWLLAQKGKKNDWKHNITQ
# Experiments:
# mGLP1R = target: T1, mGLP1R; assay: HTRF cAMP assay in transiently transfected AD293 cells; assay type: cell-based; conditions: 30 min 37 °C, n = 4 independent repeats, Extended Data Table 1, read-out: mGLP1R EC50 best-fit
# hGIPR = target: T2, hGIPR; assay: as above; assay type: cell-based; conditions: 30 min 37 °C, n = 4 independent repeats, Extended Data Table 1, read-out: hGIPR EC50 best-fit
# Description: (§1) AD293 cells (RRID:CVCL_9804) were transiently transfected 24 h before the assay in six-well plates with plasmids encoding wild-type hGLP1R, mGLP1R, hGIPR or mGIPR using Lipofectamine 2000. AD293 cells were authenticated at source using STR profiling. Cells were detached and treated with a range of agonist concentrations in serum-free DMEM + 0.1% BSA for 30 min at 37 °C in 96-well plates, followed by the addition of lysis buffer 2 (Cisbio) at a 1:2 ratio. Lysates were further diluted 1:10 to avoid spectral interference from the higher concentrations of fluorescent ligands in the HTRF assay, and the concentration of cAMP was determined after the addition of cAMP Dynamic detection reagents (Cisbio).
# mGIPR = target: T3, mGIPR; assay: as above; assay type: cell-based; conditions: cAMP, AD293 cells, 30 min 37 °C, n = 4 independent repeats; Extended Data Table 1; read-out: mGIPR EC50 best-fit
# Description: as §1
# GIP(1-42) = target: T4, GIP(1-42); assay: competition
Ki (GIP(1-42)),Molecule,EC50 (mGLP1R) [nM],EC50 (hGIPR) [nM],EC50 (mGIPR) [nM]
,CC[C@H](C)[C@H](NC(=O)[C@H](CC(C)C)NC(=O)[C@H](Cc1c[nH]c2ccccc12)NC(=O)[C@H](CCC(N)=O)NC(=O)[C@@H](NC(=O)[C@H](Cc1ccccc1)NC(=O)[C@H](C)NC(=O)[C@H](CCCCNC(=O)COCCOCCNC(=O)COCCOCCNC(=O)CC[C@H](NC(=O)CCCCCCCCCCCCCCCCCCC(=O)O)C(=O)O)NC(=O)[C@H](CCC(N)=O)NC(=O)[C@H](C)NC(=O)[C@@H](NC(=O)[C@H](CCCCN)NC(=O)[C@H](CC(=O)O)NC(=O)[C@H](CC(C)C)NC(=O)C(C)(C)NC(=O)[C@@H](NC(=O)[C@H](CO)NC(=O)[C@H](Cc1ccc(O)cc1)NC(=O)[C@H](CC(=O)O)NC(=O)[C@H](CO)NC(=O)[C@@H](NC(=O)[C@H](Cc1ccccc1)NC(=O)[C@@H](NC(=O)CNC(=O)[C@H](CCC(=O)O)NC(=O)C(C)(C)NC(=O)[C@@H](N)Cc1ccc(O)cc1)[C@@H](C)O)[C@@H](C)O)[C@@H](C)CC)[C@@H](C)CC)C(C)C)C(=O)N[C@@H](C)C(=O)NCC(=O)NCC(=O)N1CCC[C@H]1C(=O)N[C@@H](CO)C(=O)N[C@@H](CO)C(=O)NCC(=O)N[C@@H](C)C(=O)N1CCC[C@H]1C(=O)N1CCC[C@H]1C(=O)N1CCC[C@H]1C(=O)N[C@@H](CO)C(N)=O [tirzepatide],29.4,0.641,112
13.9 nM and 9.38 nM,GIPR (protein) RAETGSKGQTAGELYQRWERYRRECQETLAAAEPPSGLACNGSFDMYVCWDYAAPNATARASCPWYLPWHHHVAAGFVLRQCGSDGQWGLWRDHTQCENPEKNEAFLDQRLILERLQVMYTVGYSLSLATLLLALLILSLFRRLHCTRNYIHINLFTSFMLRAAAILSRDRLLPRPGPYLGDQALALWNQALAACRTAQIVTQYCVGANYTWLLVEGVYLHSLLVLVGGSEEGHFRYYLLLGWGAPALFVIPWVIVRYLYENTQCWERNEVKAIWWIIRTPILMTILINFLIFIRILGILLSKLRTRQMRCRDYRLRLARSTLTLVPLLGVHEVVFAPVTEEQARGALRFAKLGFEIFLSSFQGFLVSVLYCFINKEVQSEIRRGWHHCRLRRSLGEEQRQLPERAFRALPSGSGPGEVPTSRGLSSGTLPGPGNEASRELESYC,,,
